Measurements as given in patent publication US20150290204A1, “COMBINATION THERAPY” (NOVARTIS AG, priority 2012, published 2015).
Read-outs that look alike come from different tables or passages of the source.

Settings: mouse, in vivo
Protocol: (§1) For the in vivo testing in FIGS. 1 and 2, female nude (nu/nu) harlan mice bearing HLUX-1787 lung primary tumor xenografts were treated with AUY922, Compound A, a combination of AUY922 and Compound A, or vehicle at the indicated doses and schedules. Treatments started 24 days post tumor cells implantation and lasted 20 consecutive days. Statistics on change in tumor volumes and were performed with a one-way ANOVA, post hoc Tukey (* p<0.05 vs. vehicle controls).
as §1, with “FIGS. 3” for “FIGS. 1”, “and 4,” for “and 2,”, “started 27” for “started 24”, “lasted 13” for “lasted 20”
Treatment dose was body weight adjusted. Tumor dimensions and body weights were collected at the time of randomization and twice weekly thereafter for the study duration. […]
The % change in body weight was calculated as (BWcurrent−BWinitial)/(BWinitial)×100%. […]
Tumor volume and percent body weight change were expressed as mean±standard error of the mean (SEM). Plasma concentration of compound was expressed as mean±standard deviation. […]

For `Cc1cc(Nc2ncc(Cl)c(Nc3ccccc3S(=O)(=O)C(C)C)n2)c(OC(C)C)cc1C1CCNCC1` [Compound A, 5-chloro-N2-(2-isopropoxy-5-methyl-4-(piperidin-4-yl)phenyl)-N4-[2-(propane-2-sulfonyl)-phenyl]-pyrimidine-2,4-diamine], the “Tolerability” value (10 mg/kg) was “well tolerated” and the “Tolerability” value (25 mg/kg) was “well tolerated”.
